According to the PolyMetriX glass transition set:
± gives the standard deviation of the reports.

Row | glass transition temperature | SMILES
1 | 320.00 °C | *C(=O)Nc1ccc(Oc2ccc(C3(c4ccc(Oc5ccc(NC(=O)c6ccc7c(c6)C(=O)N(c6cccc(N8C(=O)c9ccc(*)cc9C8=O)c6)C7=O)cc5)cc4)NC(=O)c4ccccc43)cc2)cc1 (repeat unit)
2 | 283.00 °C | *c1cc(Br)c(Oc2c(Br)cc(N3C(=O)c4ccc(Oc5ccc6c(c5)C(=O)N(*)C6=O)cc4C3=O)cc2Br)c(Br)c1 (repeat unit)
3 | 14.00 °C | *O[Si](C)(C)O[Si](C)(C)O[Si](C)(C)Oc1c(C)cc(-c2cc(C)c(*)c(C)c2)cc1C (repeat unit)
4 | 143.00 °C | *Cc1ccc(COC(=O)c2cccc(C(=O)O*)c2)cc1 (repeat unit)
5 | 266.00 °C | *c1ccc(Oc2ccc(C3(c4ccc(Oc5ccc(N6C(=O)c7ccc(Oc8ccc(C9(c%10ccc(Oc%11ccc%12c(c%11)C(=O)N(*)C%12=O)cc%10)CCC(C(C)(C)C)CC9)cc8)cc7C6=O)cc5)cc4)C4CC5CC(C4)CC3C5)cc2)cc1 (repeat unit)
6 | -71.00 °C | *CCOCCOC(=O)CCCCCCCCCCC(=O)O* (repeat unit)
7 | 64.00 °C | *CCCCCCOC(=O)c1ccc2cc(C(=O)O*)ccc2c1 (repeat unit)
8 | 280.00 °C | *c1ccc2c(c1)C(=O)N(c1cccc(C(=O)Nc3ccc(Oc4ccc(-c5ccc(Oc6ccc(NC(=O)c7cccc(N8C(=O)c9ccc(C(*)(C(F)(F)F)C(F)(F)F)cc9C8=O)c7)cc6)cc5)cc4)cc3)c1)C2=O (repeat unit)
9 | 150.00 °C | *CC(*)OC(=O)c1nn(C(C)=O)c2ccccc12 (repeat unit)
10 | -45.00 °C | *O[Si](*)(C)CCCCCCCCCCCn1c2ccccc2c2ccccc21 (repeat unit)
11 | 216.00 °C | *C(=O)Nc1ccc(NC(=O)c2ccc3c(c2)C(=O)N(c2ccc(NC(=O)Nc4ccc(N5C(=O)c6ccc(*)cc6C5=O)cc4)cc2)C3=O)cc1 (repeat unit)
12 | 213.00 °C | *c1ccc2c(c1)C(CCCCCCCC)(CCCCCCCC)c1cc(-c3ccc4c(c3)C(c3ccc(-c5nnc(-c6ccc(C(C)(C)C)cc6)o5)cc3)(c3ccc(-c5nnc(-c6ccc(C(C)(C)C)cc6)o5)cc3)c3cc(*)ccc3-4)ccc1-2 (repeat unit)
13 | 279.00 °C | *c1ccc(OC(=O)c2cc(C(=O)Oc3ccc(C4(*)OC(=O)c5ccccc54)cc3)cc(C(C)(C)C)c2)cc1 (repeat unit)
14 | 225.00 °C | *C(=O)Oc1ccc(C(C)(C)c2ccc(OC(=O)c3ccc4c(c3)C(=O)N(c3cccc(N5C(=O)c6ccc(*)cc6C5=O)c3)C4=O)cc2)cc1 (repeat unit)
15 | 153.00 °C | *CCCC(C)(C)CNC(=O)c1cccc(C(=O)N*)c1 (repeat unit)
16 | 212.00 °C | *Oc1ccc(C2(c3ccc(Oc4ccc(C(=O)c5cccc(-c6cccc(C(=O)c7ccc(*)cc7)c6)c5)cc4)cc3)c3ccccc3-c3ccccc32)cc1 (repeat unit)
17 | 162.00 °C | *Oc1ccc(Oc2ccc(/C(=N/c3ccc(Oc4ccc(/N=C(\c5ccccc5)c5ccc(*)cc5)cc4)cc3)c3ccccc3)cc2)cc1 (repeat unit)
18 | 265.00 °C | *c1cccc(N2C(=O)c3ccc(Oc4ccc(S(=O)(=O)c5ccc(Oc6ccc7c(c6)C(=O)N(*)C7=O)cc5)cc4)cc3C2=O)c1 (repeat unit)
19 | 280.00 °C | *c1ccc(NC(=O)c2cc(NC(=O)c3ccc(OC(C)=O)cc3)cc(C(=O)Nc3ccc(-c4nnc(*)o4)cc3)c2)cc1 (repeat unit)
20 | 339.00 °C | *Nc1ccc(-c2ccc(NC(=O)c3cc(NC(=O)c4ccncc4)cc(C(*)=O)c3)cc2)cc1 (repeat unit)
21 | 346.66 °C | *c1cccc(-c2nc3cc(-c4ccc5c(c4)nc(*)n5C)ccc3[nH]2)c1 (repeat unit)
22 | 355.00 °C | *c1ccc2c(c1)C(=O)N(c1ccc(Oc3c(C(C)(C)C)cc(-c4ccc(N5C(=O)c6ccc(C(*)(C(F)(F)F)C(F)(F)F)cc6C5=O)cc4)cc3C(C)(C)C)cc1)C2=O (repeat unit)
23 | 219.00 °C | *c1cccc(C(O[Si](C)(C)O[Si](C)(C)O[Si](C)(C)C)c2cccc(N3C(=O)c4ccc(Oc5ccc6c(c5)C(=O)N(*)C6=O)cc4C3=O)c2)c1 (repeat unit)
24 | 130.00 °C | *Oc1ccc(OC(=O)c2ccc(C(*)=O)cc2Sc2ccccc2)cc1C (repeat unit)
25 | 102.00 °C | *O[Si](*)(C)CCCOc1ccc(N(c2ccc(C)cc2)c2ccc(-c3ccc(N(c4ccccc4)c4ccc(C)cc4)cc3)cc2)cc1 (repeat unit)
26 | 95.00 °C | *CCCCCCNC(=O)Cc1ccc(CC(=O)N*)cc1 (repeat unit)

Row | glass transition temperature | SMILES
27 | 59.00 °C | *Oc1cc(OC(=O)c2ccc(OCCCC)cc2)c(OC(=O)CCCC(*)=O)cc1OC(=O)c1ccc(OCCCC)cc1 (repeat unit)
28 | 21.00 °C | *CC(*)(C)C(=O)OCCCCCCCCCCOc1ccc(OC(=O)c2ccc(OC)cc2)cc1 (repeat unit)
29 | 272.00 °C | *Oc1ccc(NC(=O)c2cc(C(=O)Nc3ccc(Oc4ccc(C5(c6ccc(*)cc6)CC6CCC5C6)cc4)cc3)cc(C(C)(C)C)c2)cc1 (repeat unit)
30 | 34.00 °C | *CC(O)COC(=O)CCCCC(=O)OCC(O)COc1ccc(C(C)(C)c2ccc(O*)cc2)cc1 (repeat unit)
31 | 146.00 °C | *CCN(CCOC(=O)c1ccc(C(=O)O*)c(OC)c1)c1ccc(/N=N/c2ccc(-c3nc4ccc([N+](=O)[O-])cc4n3CC)cc2)cc1 (repeat unit)
32 | 44.12 ± 6 °C | *CCCCOC(=O)c1ccc(C(=O)O*)cc1 (repeat unit) [Poly(butylene terephthalate)]
33 | 72.34 °C | *c1ccc(NC(=O)CCCCCCCCC(=O)Nc2ccc(S(*)(=O)=O)cc2)cc1 (repeat unit)
34 | 119.00 °C | *OC(COC(=O)c1cccc(C(*)=O)c1)COc1ccc(/N=N/c2ccc(C#N)cc2)cc1 (repeat unit)
35 | 315.00 °C | *c1ccc(-c2cc(-c3ccc(OCCCC#N)cc3)cc(-c3ccc(N4C(=O)c5ccc(Oc6ccc7c(c6)C(=O)N(*)C7=O)cc5C4=O)cc3)n2)cc1 (repeat unit)
36 | 9.00 °C | *CC(*)C(=O)OC(F)(F)C(F)(F)C(F)(F)C(F)(F)C(F)(F)C(F)(F)C(F)(F)C(F)(F)F (repeat unit)
37 | 282.00 °C | *c1ccc(Oc2ccc(C(=O)c3ccc(Oc4ccc(-c5c6c(c(*)c7ccccc57)C(=O)N(c5ccccc5F)C6=O)cc4)cc3)cc2)cc1 (repeat unit)
38 | 122.00 °C | *CCCCCCCCCCC(=O)Nc1ccc(Oc2ccc(Oc3ccc(NC(=O)CCCCCCCCCCN4C(=O)c5ccc(C(=O)c6ccc7c(c6)C(=O)N(*)C7=O)cc5C4=O)cc3)cc2)cc1 (repeat unit)
39 | 194.00 °C | *OC(=O)Oc1ccc(C(C)(C)c2ccc(OC(=O)OC3CC4CC(*)CC(C3)O4)cc2)cc1 (repeat unit)
40 | 278.00 °C | *C(=O)Nc1ccc(Oc2ccc(NC(=O)c3ccc4c(c3)C(=O)N(c3ccc(Oc5cccc6c(N7C(=O)c8ccc(*)cc8C7=O)cccc56)cc3)C4=O)cc2)cc1 (repeat unit)
41 | 110.00 °C | *=Nc1ccc(Cc2ccc(NC(=*)CCC)cc2)cc1 (repeat unit)
42 | 122.00 °C | *C1=C(c2ccc(-c3ccc4c(c3)C(CCCCCC)(CCCCCC)c3cc(-c5ccc(*)cc5)ccc3-4)cc2)C(=O)N(CCCCCCCC)C1=O (repeat unit)
43 | 22.50 °C | *O[Si](*)(C)CCCCOc1ccc(-c2ccc(C#N)cc2)cc1 (repeat unit)
44 | 221.00 °C | *Cc1cc2cc(C(=O)Nc3ccc(Cc4ccc(NC(=O)c5cc6cc(*)c(OC(=O)COc7ccc8ccc(=O)oc8c7)cc6oc5=O)cc4)cc3)c(=O)oc2cc1OC(=O)COc1ccc2ccc(=O)oc2c1 (repeat unit)
45 | 71.20 °C | *C[Si](*)(C)CCCn1c2ccccc2c2ccccc21 (repeat unit)
46 | 273.00 °C | *c1ccc([Si](c2ccccc2)(c2ccccc2)c2ccc(-c3nnc(-c4ccc(-c5nnc(*)o5)c5ccccc45)o3)cc2)cc1 (repeat unit)
47 | 120.50 °C | *CC/C(=C(/*)c1ccccc1)c1ccccc1 (repeat unit)
48 | 321.00 °C | *c1cccc(C(=O)c2cccc(-n3c(=O)c4cc5c(=O)n(*)c(=O)c5cc4c3=O)c2)c1 (repeat unit)
49 | 331.00 °C | *C(=O)Nc1ccc(C2(c3ccc(N4C(=O)c5ccc(*)cc5C4=O)cc3)CCC(C(C)(C)C)CC2)cc1 (repeat unit)
50 | 47.00 °C | *CC(*)C(=O)Oc1ccc(C(=O)Oc2ccc(OC(=O)c3ccc(OCCCC)cc3)cc2)cc1 (repeat unit)
51 | 54.00 °C | *Oc1c(C)cc(*)cc1C(C)CCCCCC (repeat unit)

Row | SMILES | glass transition temperature
52 | *=NP(=NP(=NC(=*)Oc1ccccc1C(F)(F)F)(Oc1ccccc1C(F)(F)F)Oc1ccccc1C(F)(F)F)(Oc1ccccc1C(F)(F)F)Oc1ccccc1C(F)(F)F (repeat unit) | -20.00 °C
53 | *Oc1cc(Br)cc(Br)c1* (repeat unit) | 170.00 °C
54 | *CC(*)(Cl)Cl (repeat unit) [Poly(vinylidene chloride)] | -9.83 ± 9.4 °C
55 | *CC(*)C(=O)NCP(=O)(O)O (repeat unit) | 26.00 °C
56 | *c1cc(CCOC(=O)C(C)Br)c(*)s1 (repeat unit) | 49.00 °C
57 | *c1ccc(C(*)C)cc1 (repeat unit) | 93.00 °C
58 | *CCN(*)C(=O)c1ccc(F)cc1 (repeat unit) | 104.00 °C
59 | *O[Si](*)(C)C=C (repeat unit) | -129.00 °C
60 | *OC(F)(C(*)(F)F)C(F)(F)F (repeat unit) | -73.00 °C
61 | *c1cccc(P(=O)(c2ccccc2)c2cccc(N3C(=O)c4ccc(NC(=O)OCCOc5ccc(C(C)(C)c6ccc(OCCOC(=O)Nc7ccc8c(c7)C(=O)N(*)C8=O)cc6)cc5)cc4C3=O)c2)c1 (repeat unit) | 220.00 °C
62 | *CC(*)OCCCCCCCCCC (repeat unit) [Poly(vinyl n-decyl ether) ] | -76 ± 8.5 °C
